For twelve compounds, IC50 and GI50 results are on record in patent publication US20260250289A1, “BICYCLIC HETEROCYCLES AND THEIR USE AS WRN INHIBITORS” (Novartis AG, priority 2022, published 2026).

The structures appear in SMILES notation.

The target in assay [1] is T1, WRN helicase (aa N517-P1238) (Homo sapiens, UniProt Q14191).
T1 construct: The core helicase motif of the WRN protein (aa N517-P1238) was produced for this assay; His (N); ZZ (N); 3C protease cleavage site (N); made in house; host or cells: Sf21 insect cells (baculovirus; virus and BIICs made in SF9)
T1 sequence (Q14191 517-1238): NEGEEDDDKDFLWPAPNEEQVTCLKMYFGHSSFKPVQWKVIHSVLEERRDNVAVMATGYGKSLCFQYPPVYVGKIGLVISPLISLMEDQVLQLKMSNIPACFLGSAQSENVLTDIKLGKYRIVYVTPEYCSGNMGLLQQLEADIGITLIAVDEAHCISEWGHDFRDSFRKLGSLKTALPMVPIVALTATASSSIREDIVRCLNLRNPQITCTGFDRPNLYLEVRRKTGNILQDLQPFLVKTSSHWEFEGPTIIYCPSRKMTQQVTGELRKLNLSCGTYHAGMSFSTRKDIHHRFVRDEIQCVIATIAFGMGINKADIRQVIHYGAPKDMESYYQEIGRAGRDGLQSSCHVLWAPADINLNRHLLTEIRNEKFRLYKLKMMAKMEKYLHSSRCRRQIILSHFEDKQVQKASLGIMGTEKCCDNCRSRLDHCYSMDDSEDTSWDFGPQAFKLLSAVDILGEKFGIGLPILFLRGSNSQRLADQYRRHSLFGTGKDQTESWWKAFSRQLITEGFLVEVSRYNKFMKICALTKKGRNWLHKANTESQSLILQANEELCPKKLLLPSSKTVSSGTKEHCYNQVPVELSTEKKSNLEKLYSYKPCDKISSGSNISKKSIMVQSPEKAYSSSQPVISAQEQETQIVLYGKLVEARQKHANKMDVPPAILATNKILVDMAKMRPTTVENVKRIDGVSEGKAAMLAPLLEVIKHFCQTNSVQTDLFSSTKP
Kind of assay: WRN ATPase assay (DNA dependent ATP hydrolysis, ADP-Glo). It counts as biochemical. As to conditions: 3 hours pre-incubation, 300 micromolar ATP, FLAP26 DNA; geometric mean of at least 2. Summed up: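 DNA-dependent ATP hydrolysis detected as ADP by ADP-Glo luminescence, using 300 μM ATP, 0.2 nM FLAP26 substrate and 10 nM WRN aa N517-P1238 (Tris pH 7.5 buffer, 2 mM MgCl2, 50 mM NaCl). IC50s fitted from normalized duplicate half-log dilutions; reported as geometric means of at least 2 replicates.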

A further assay concerns SW48 cells. Kind of assay: Proliferation assay SW48 (CellTiterGlo). The format is cell-based. Particulars: Homo sapiens, SW48, 96 h, SW48 colon carcinoma cells, 96 hours, CellTiterGlo; geometric mean of at least 2; read-out: Proliferation Assay SW48 GI50. The source says:
The colon carcinoma cell lines SW48 (RRID: CVCL_1724), HCT 116 (RRID: CVCL_0291) and SNU-407 (RRID: CVCL_5058) were obtained from ATCC. The WRN-knockdown insensitive colon carcinoma cell line DLD-1 (RRID: CVCL_0248) was obtained from the Korean Cell Line Bank (KCLB), and used to generate a derivative in which the endogenous WRN gene copies were knocked out by CRISPR-mediated editing using standard CRISPR methods. The resulting cell line, DLD1-WRN-KO, was used to assess potential off-target compound effects.
SW48, SNU-407 and DLD1-WRN-KO cells were cultured in growth medium composed of RPMI-1640 (Amimed Cat #1-41F22-1), 2 mM L-Glutamine (Amimed Cat #5-10K50), 10 mM HEPES (Gibco Cat #15630-056), 1 mM sodium pyruvate (Amimed Cat #5-60F00-H), 1× Penicillin-Streptomycin (Amimed Cat #4-01F00-H) and 10% fetal calf serum (Amimed Cat #2-01F30-G, Lot #LB11566P). HCT 116 cells were cultured in growth medium composed of McCoys 5A (Amimed catalog #1-18F01-1), 2 mM L-Glutamine (Amimed Cat #5-10K50), 1× Penicillin-Streptomycin (Amimed Cat #4-01F00-H) and 10% fetal calf serum (Amimed Cat #2-01F30-G, Lot #LB11566P). All cells were maintained at 37° C. in a humidified 5% CO2 incubator.
Following filtration through a Steriflip-NY 20 μm filter (Millipore Cat #SCNY00020), trypsinized cells were seeded in 100 microliters growth medium at 2,000 (SW48) or 1,500 (SNU-407, DLD1-WRN-KO, HCT 116) cells/well into white, clear-bottom 96-well plates (Costar Cat #3903). Three replicate plates were prepared for each compound treatment condition. In addition, one plate (termed “day 0”) was prepared to quantify the number of viable cells at the time of compound addition. Following overnight incubation at 37° C. in a humidified 5% CO2 atmosphere, eight 3-fold serial dilutions of a given compound stock (obtained at a concentration of 10 mM in DMSO and stored at 4° C.) were dispensed directly into each of the triplicate assay plates using a HP 300D non-contact Digital Dispenser (TECAN). The final concentration of DMSO was normalized to 0.1% in all wells. 96 hours after compound addition, cellular ATP levels as a surrogate for cell viability was assessed following addition of 50 microliters CellTiterGlo (Promega Cat #G7573) reagent and luminescence quantification on a MPLEX multi-mode plate-reader (TECAN) following a 10 minute incubation at room temperature. The number of viable cells in the “day 0” plate were quantified identically on the day of compound addition.
For data analysis, the assay background signal that was determined in wells containing medium, but no cells, was subtracted from all other data points prior to further calculations. The extent of growth inhibition and potential cell kill was assessed by comparing the ATP levels (measured using CellTiterGlo, Promega) in compound-treated cells with those present at the time of compound addition. To this end, the following conditional concept was programmatically applied in HELIOS, an in-house software applying a multi-step decision tree to arrive at optimal concentration response curve fits (Gubler et al, SLAS DOI: 10.1177/2472555217752140) to calculate % growth (% G) for each compound-treated well: % G=(T−V0)/V0))*100 when T<V0, and % G=(T−V0)/(V−V0)))*100 when T≥V0, where V0 is the viability level at time of compound addition, while V and T represent vehicle-control and compound-treated viability levels, respectively, at the end of the compound incubation. 100%, 0% and −100% signify absence of growth inhibition, growth stasis, and complete cell kill, respectively. Compound concentrations leading to half-maximal growth inhibition (GI50) and residual cell viability at the highest tested compound concentration (Data (cmax), expressed in percent) were routinely calculated. Data analysis can also be carried out using commercially available software designed to derive IC50 values using 4-parameter fits (e.g. GraphPad Prism, XL fit). […]

For another assay, the system named is DLD1-WRN-KO cells. Kind of assay: Proliferation assay DLD1-WRN-KO (CellTiterGlo, off-target effects). It counts as cell-based. As to conditions: 96 hours, geometric mean of at least 2. Summed up: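 DLD1 cells with CRISPR knockout of WRN were exposed overnight-seeded to eight 3-fold compound dilutions (0.1% DMSO) for 96 h at 37 °C. Viability was read as ATP by CellTiterGlo luminescence against a day-0 plate, giving GI50 and residual viability at top concentration.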

Compound `Cc1c(N2CCN(C(=O)c3cc(F)ccc3O)CC2)c(=O)n2nc(C3=CCOCC3)nc2n1CC(=O)Nc1ccc(C(F)(F)F)cc1` [Example 17, 2-(2-(3,6-dihydro-2H-pyran-4-yl)-6-(4-(5-fluoro-2-hydroxybenzoyl)piperazin-1-yl)-5-methyl-7-oxo-[1,2,4]triazolo[1,5-a]pyrimidin-4(7H)-yl)-N-(4-(trifluoromethyl)phenyl)acetamide] had an IC50 in assay [1] of 50 nM. Further, the GI50 in the assay on SW48 cells is 900 nM; in the assay on DLD1-WRN-KO cells it was 8000 nM.
On to `CCc1c(N2CCN(C(=O)c3c(O)ccc4ncccc34)CC2)c(=O)n2nc(C3=CCOCC3)nc2n1CC(=O)Nc1ccc(C(F)(F)F)cc1C` [Example 18, 2-(2-(3,6-dihydro-2H-pyran-4-yl)-5-ethyl-6-(4-(6-hydroxyquinoline-5-carbonyl)piperazin-1-yl)-7-oxo-[1,2,4]triazolo[1,5-a]pyrimidin-4(7H)-yl)-N-(2-methyl-4-(trifluoromethyl)phenyl)acetamide], for which the IC50 in assay [1] amounted to 60 nM. In addition, the GI50 with SW48 cells was 200 nM; with DLD1-WRN-KO cells, over 10000 nM.
The compound `Cc1c(N2CCN(C(=O)c3ccnc(F)c3O)CC2)c(=O)n2nc(C3=CCOCC3)nc2n1CC(=O)Nc1ccc(C(F)(F)F)cc1` [Example 19, 2-(2-(3,6-dihydro-2H-pyran-4-yl)-6-(4-(2-fluoro-3-hydroxyisonicotinoyl)piperazin-1-yl)-5-methyl-7-oxo-[1,2,4]triazolo[1,5-a]pyrimidin-4(7H)-yl)-N-(4-(trifluoromethyl)phenyl)acetamide] displayed an IC50 in assay [1] of 60 nM. The GI50 in the assay with SW48 cells and in the assay on DLD1-WRN-KO cells was over 10000 nM throughout.
`Cc1nc2ccccc2c(C(=O)N2CCN(c3c(C)n(CC(=O)Nc4ccc(C(F)(F)F)cc4)c4nc(C5=CCOCC5)nn4c3=O)CC2)c1O` [Example 20, 2-(2-(3,6-dihydro-2H-pyran-4-yl)-6-(4-(3-hydroxy-2-methylquinoline-4-carbonyl)piperazin-1-yl)-5-methyl-7-oxo-[1,2,4]triazolo[1,5-a]pyrimidin-4(7H)-yl)-N-(4-(trifluoromethyl)phenyl)acetamide]: in assay [1], the IC50 came out at 90 nM. Moreover, the values for the GI50 with SW48 cells and with DLD1-WRN-KO cells were 1000 nM and over 10000 nM, respectively.
In assay [1], `Cc1c(N2CCN(C(=O)c3cc(F)cnc3O)CC2)c(=O)n2nc(C3=CCOCC3)nc2n1CC(=O)Nc1ccc(C(F)(F)F)cc1` [Example 21, 2-(2-(3,6-dihydro-2H-pyran-4-yl)-6-(4-(5-fluoro-2-hydroxynicotinoyl)piperazin-1-yl)-5-methyl-7-oxo-[1,2,4]triazolo[1,5-a]pyrimidin-4(7H)-yl)-N-(4-(trifluoromethyl)phenyl)acetamide] returned a 50% inhibitory concentration (IC50) of 100 nM. In addition, the GI50 in the assay with SW48 cells and in the assay with DLD1-WRN-KO cells was over 10000 nM in each case.
The compound `Cc1c(N2CCN(C(=O)c3cncc(F)c3O)CC2)c(=O)n2nc(C3=CCOCC3)nc2n1CC(=O)Nc1ccc(C(F)(F)F)cc1` [Example 22, 2-(2-(3,6-dihydro-2H-pyran-4-yl)-6-(4-(5-fluoro-4-hydroxynicotinoyl)piperazin-1-yl)-5-methyl-7-oxo-[1,2,4]triazolo[1,5-a]pyrimidin-4(7H)-yl)-N-(4-(trifluoromethyl)phenyl)acetamide] showed an IC50 in assay [1] of 100 nM. The GI50 in the assay on SW48 cells and with DLD1-WRN-KO cells was over 10000 nM in each case.
For `CCc1c(N2CCN(C(=O)c3ccnc(C)c3O)CC2)c(=O)n2nc(C3=CCCCO3)nc2n1CC(=O)Nc1ccc(C(F)(F)F)cc1Cl` [Example 23, N-(2-chloro-4-(trifluoromethyl)phenyl)-2-(2-(3,4-dihydro-2H-pyran-6-yl)-5-ethyl-6-(4-(3-hydroxy-2-methylisonicotinoyl)piperazin-1-yl)-7-oxo-[1,2,4]triazolo[1,5-a]pyrimidin-4(7H)-yl)acetamide], in assay [1], inhibition was half-maximal at 200 nM (IC50). The results for the GI50 in the assay on SW48 cells and with DLD1-WRN-KO cells were 300 nM and over 10000 nM, respectively.
The matching figures for `Cc1c(N2CCN(C(=O)c3cnccc3O)CC2)c(=O)n2nc(C3=CCOCC3)nc2n1CC(=O)Nc1ccc(C(F)(F)F)cc1` [Example 24, 2-(2-(3,6-dihydro-2H-pyran-4-yl)-6-(4-(4-hydroxynicotinoyl)piperazin-1-yl)-5-methyl-7-oxo-[1,2,4]triazolo[1,5-a]pyrimidin-4(7H)-yl)-N-(4-(trifluoromethyl)phenyl)acetamide]: 200 nM, over 10000 nM and over 10000 nM.
On the same counts, the results for `Cc1cccc(O)c1C(=O)N1CCN(c2c(C)n(CC(=O)Nc3ccc(C(F)(F)F)cc3)c3nc(C4=CCOCC4)nn3c2=O)CC1` [Example 25, 2-(2-(3,6-dihydro-2H-pyran-4-yl)-6-(4-(2-hydroxy-6-methylbenzoyl)piperazin-1-yl)-5-methyl-7-oxo-[1,2,4]triazolo[1,5-a]pyrimidin-4(7H)-yl)-N-(4-(trifluoromethyl)phenyl)acetamide] are 200 nM, 4000 nM and over 10000 nM.
On the same counts, the results for `Cc1cc(C(=O)N2CCN(c3c(C)n(CC(=O)Nc4ccc(C(F)(F)F)cc4)c4nc(C5=CCOCC5)nn4c3=O)CC2)c(O)cn1` [Example 26, 2-(2-(3,6-dihydro-2H-pyran-4-yl)-6-(4-(5-hydroxy-2-methylisonicotinoyl)piperazin-1-yl)-5-methyl-7-oxo-[1,2,4]triazolo[1,5-a]pyrimidin-4(7H)-yl)-N-(4-(trifluoromethyl)phenyl)acetamide] are 300 nM, over 10000 nM and over 10000 nM.
Compound `Cc1ccnc(O)c1C(=O)N1CCN(c2c(C)n(CC(=O)Nc3ccc(C(F)(F)F)cc3)c3nc(C4=CCOCC4)nn3c2=O)CC1` [Example 27, 2-(2-(3,6-dihydro-2H-pyran-4-yl)-6-(4-(2-hydroxy-4-methylnicotinoyl)piperazin-1-yl)-5-methyl-7-oxo-[1,2,4]triazolo[1,5-a]pyrimidin-4(7H)-yl)-N-(4-(trifluoromethyl)phenyl)acetamide] came in with an IC50 in assay [1] of 300 nM. In addition, the GI50 in the assay on SW48 cells and in the assay with DLD1-WRN-KO cells was over 10000 nM in each case.
In assay [1], `Cc1c(N2CCN(C(=O)c3c(F)ccnc3O)CC2)c(=O)n2nc(C3=CCOCC3)nc2n1CC(=O)Nc1ccc(C(F)(F)F)cc1` [Example 28, 2-(2-(3,6-dihydro-2H-pyran-4-yl)-6-(4-(4-fluoro-2-hydroxynicotinoyl)piperazin-1-yl)-5-methyl-7-oxo-[1,2,4]triazolo[1,5-a]pyrimidin-4(7H)-yl)-N-(4-(trifluoromethyl)phenyl)acetamide] had an IC50 of 500 nM. Besides, the GI50 with SW48 cells and in the assay on DLD1-WRN-KO cells was over 10000 nM throughout.
